The text below walks through data of patent US10206906B2, “Synergistic combination of a phenolic-rich maple syrup extract and an antibiotic” (priority 2015, dated 2019).

The test system of test [1] is P. aeruginosa PAO1. Kind of test: Checkerboard microdilution assay (growth inhibition synergy). Conditions: for FIC of ciprofloxacin: ciprofloxacin in combination with the labelled phenolic constituent; for FICI: labelled phenolic constituent + ciprofloxacin, * = synergistic interaction; for FIC of compound: labelled phenolic constituent in combination with ciprofloxacin. Format: cell-based, Pseudomonas aeruginosa. How it is done: (§1) The checkerboard microdilution assay is used for evaluation of in vitro antimicrobial synergy between two compounds (i.e., antibiotic/PRMSE, antibiotic/pure phenolic compound, and pure phenolic compounds with each other). Two-fold serial dilutions are prepared in MHB-II for each of the two compounds under study. The serial dilutions are then loaded into 96 well plates to achieve combinations having different concentrations of each of the two compounds. Each well is subsequently inoculated with 10^6 CFU mL^−1 of the desired bacterial strain and incubated at 37° C. for 18 h under static conditions. The Fractional Inhibitory Concentration Index (FICI) for each combination is calculated by using the following formula: FICcomponent 1=MICcomponent 1, in combination/MICcomponent 1,alone FICI=FICcomponent 1+FICcomponent 2
(§2) The FICIs are interpreted as follows: FICI of […] (synergy); 0.5<FICI ≤1 (no interaction/indifference); FICI of >4 (antagonism).

Test [2] concerns P. aeruginosa PA14. The description is as above. In kind it is cell-based, Pseudomonas aeruginosa. The conditions noted are these: for FIC of ciprofloxacin: ciprofloxacin in combination with the labelled phenolic constituent; for FICI: labelled phenolic constituent + ciprofloxacin, * = synergistic interaction; for FIC of compound: labelled phenolic constituent in combination with ciprofloxacin. How it is done: as §1, §2

In test [3] the test system is E. coli CFT073. Described as above. In kind it is cell-based, Escherichia coli. Conditions: for FIC of ciprofloxacin: ciprofloxacin in combination with the labelled phenolic constituent; for FICI: labelled phenolic constituent + ciprofloxacin, * = synergistic interaction; for FIC of compound: labelled phenolic constituent in combination with ciprofloxacin. Here is the method:
as §1, §2

Test [4] deals with P. mirabilis HI4320. In words: Determination of minimum inhibitory concentration (MIC). In kind it is cell-based. The conditions noted are these: Proteus mirabilis, HI4320, 18 h; read-out: MIC. Here is the method:
(§3) A range of concentration of antibiotics, ciprofloxacin (0.0003-0.25 μg mL^−1) and carbenicillin (0.5-512 μg mL^−1), are chosen due to their known potency against all four bacterial strains. Dilutions are prepared in flat bottom, 96 well microtitre plates (Falcon™, Corning™, Fisher Scientific, ON, Canada). Each well of a microtitre plate is then inoculated with the desired bacterial strain (grown in MHB-II and diluted to […]) and the plate is incubated at 37° C. for 18 h under static conditions. Bacterial growth is assessed by (i) monitoring the optical density of the cell suspension in each well at 600 nm (OD600 nm), and (ii) the resazurin microtitre plate assay. In the resazurin microtitre plate assay, each well of a microtitre plate is supplemented with 20 μM resazurin, incubated in the dark for 20 min at room temperature, followed by fluorescence measurements at ex/em 570/590 nm using a TECAN Infinite M200 Pro microplate reader (Tecan Group Ltd., Switzerland). The lowest concentration of a compound able to prevent increase in OD600 nm and resazurin fluorescence intensity is recorded as the MIC for that compound.

Test [5] deals with P. aeruginosa PAO1. Described as above. The conditions noted are these: Pseudomonas aeruginosa, PAO1, 18 h; read-out: MIC. In kind it is cell-based. How it is done: as §3
For test [6], the system named is E. coli CFT073. The description is as above. Conditions: Escherichia coli, CFT073, 18 h; read-out: MIC. Format: cell-based. How it is done:
as §3

For test [7], the system named is P. aeruginosa PA14. The description is as above. Format: cell-based. Conditions: Pseudomonas aeruginosa, PA14, 18 h; read-out: MIC. How it is done:
as §3

The test system of test [8] is P. mirabilis HI4320. Kind of test: Checkerboard microdilution assay (growth inhibition synergy). Format: cell-based, Proteus mirabilis. The conditions noted are these: for FIC of ciprofloxacin: ciprofloxacin in combination with the labelled phenolic constituent; for FICI: labelled phenolic constituent + ciprofloxacin, * = synergistic interaction; for FIC of compound: labelled phenolic constituent in combination with ciprofloxacin. How it is done: as §1, §2

Test [9] concerns proton motive force-driven multidrug efflux pump of P. aeruginosa PA14. In words: Ethidium bromide (EtBr) efflux assay. In kind it is cell-based, Pseudomonas aeruginosa. Conditions: PRMSE, catechol at 0.25 times the MIC; CCCP 100 μM; untreated cells 30.9. Here is the method: (§4) An overnight grown culture of each strain is diluted 1:100 using MHB-II broth to a final volume of 10 mL and grown to an OD600 of 0.8-1.0 (at 37° C., 150 rpm). […] The tubes are incubated for 1 h (37° C., 150 rpm). The inoculum is then adjusted to 0.4 OD600 with MHB-II broth containing 5 μM EtBr and 2 mL aliquots of this mixture are pelleted (5000×g, 10 min at 4° C.). The pellets are incubated on ice immediately, resuspended in 1 mL of MHB-II, and aliquoted (200 μL) into a polystyrene 96 well black, clear-bottom plate (Corning™, Fisher Scientific, ON, Canada). EtBr efflux from the cells is monitored at room temperature using the microplate reader (ex/em 530/600 nm). Readings are taken at 5 min intervals for 1 h to monitor efflux pump activity. The background fluorescence of the medium is subtracted from all measurements and the assay is repeated independently in triplicate.

Test [10] has as its system proton motive force-driven multidrug efflux pump of P. aeruginosa PAO1. Kind of test: Ethidium bromide (EtBr) efflux assay. Conditions: PRMSE, catechol at 0.25 times the MIC; CCCP 100 μM; untreated cells 37.6. Format: cell-based, Pseudomonas aeruginosa. Here is the method: as §4
Test [11] has as its system proton motive force-driven multidrug efflux pump of P. mirabilis HI4320. Kind of test: Ethidium bromide (EtBr) efflux assay. Conditions: PRMSE, catechol at 0.25 times the MIC; CCCP 100 μM; untreated cells 35.9. In kind it is cell-based, Proteus mirabilis. Here is the method: as §4
Test [12] has as its system proton motive force-driven multidrug efflux pump of E. coli CFT073. In words: Ethidium bromide (EtBr) efflux assay. Conditions: PRMSE, catechol at 0.25 times the MIC; CCCP 100 μM; untreated cells 36.9. Format: cell-based, Escherichia coli. Here is the method: as §4
The mark [13] stands for this setting: labelled constituent + catechol, * = synergistic.
The mark [14] stands for this setting: labelled constituent + gallic acid, * = synergistic.
Where [15] appears, read: labelled constituent combined with catechol.
Where [16] appears, read: labelled constituent combined with gallic acid.

Converted amounts (≈) assume the structure as drawn.

Consider `O=C(O)c1cc(O)c(O)c(O)c1` [gallic acid], for which the FIC of ciprofloxacin with P. aeruginosa PAO1 [1], in the test on P. aeruginosa PA14 [2], in the test with E. coli CFT073 [3] and in the test on P. mirabilis HI4320 [8] was 1 each time. Besides, the FICI with P. aeruginosa PAO1 [1], in the test on P. aeruginosa PA14 [2], with E. coli CFT073 [3] and in the test with P. mirabilis HI4320 [8] was 2 throughout. Besides, the FIC of compound in the test on P. aeruginosa PAO1 [1], in the test with P. aeruginosa PA14 [2], with E. coli CFT073 [3] and in the test on P. mirabilis HI4320 [8] was 1 in each case. Further, the MIC in the test with P. mirabilis HI4320 [4], with P. aeruginosa PAO1 [5], in the test with E. coli CFT073 [6] and in the test with P. aeruginosa PA14 [7] was 5000 µg/mL (≈ 29.4 mM) throughout.

As for `N#CC(C#N)=NNc1cccc(Cl)c1` [CCCP, carbonyl cyanide m-chlorophenylhydrazone, reference compound], the Efflux pump activity in test [9] stood at 17%; in test [11], 14.5%; in test [12] it was 15.8%. For the same compound, the “% EtBr efflux” value in test [10] is 19.3%.

On to `O=Cc1ccc(O)c(O)c1` [catechaldehyde, 3,4-dihydroxybenzaldehyde], for which the FIC of ciprofloxacin came to 0.5 in the test with P. aeruginosa PAO1 [1], 1 in the test with P. aeruginosa PA14 [2], 1 in the test with E. coli CFT073 [3] and 0.5 in the test on P. mirabilis HI4320 [8]. Further, the “FICI, catechol” value with P. aeruginosa PAO1 [1] (setting [13]) was 0.37*; in the test with P. aeruginosa PA14 [2] (setting [13]), 0.5*; in the test with E. coli CFT073 [3] (setting [13]) it was 0.5*; in the test with P. mirabilis HI4320 [8] (setting [13]), 0.5*. Further, the “FICI, gallic acid” value is reported as 0.37* with P. aeruginosa PAO1 [1] (setting [14]), 0.5* with P. aeruginosa PA14 [2] (setting [14]), 0.5* in the test on E. coli CFT073 [3] (setting [14]) and 0.37* in the test on P. mirabilis HI4320 [8] (setting [14]). The “FIC, catechol” value in the test on P. aeruginosa PAO1 [1] (setting [15]), in the test with P. aeruginosa PA14 [2] (setting [15]), in the test on E. coli CFT073 [3] (setting [15]) and with P. mirabilis HI4320 [8] (setting [15]) was 0.25 throughout. In addition, the “FIC, gallic acid” value in the test on P. aeruginosa PAO1 [1] (setting [16]) amounted to 0.13; with P. aeruginosa PA14 [2] (setting [16]), 0.25; in the test on E. coli CFT073 [3] (setting [16]), 0.25; with P. mirabilis HI4320 [8] (setting [16]), 0.13. For the same compound, the FICI in the test on P. aeruginosa PAO1 [1] is listed as 1.01; with P. aeruginosa PA14 [2], 2; in the test with E. coli CFT073 [3], 2; in the test on P. mirabilis HI4320 [8] it was 1.5. In addition, the FIC of compound in the test with P. aeruginosa PAO1 [1] turned out to be 0.51; with P. aeruginosa PA14 [2], 1; in the test with E. coli CFT073 [3], 1; in the test with P. mirabilis HI4320 [8], 1. For the same compound, the MIC in the test with P. mirabilis HI4320 [4], in the test on P. aeruginosa PAO1 [5], in the test with E. coli CFT073 [6] and with P. aeruginosa PA14 [7] was 1250 µg/mL (≈ 9.05 mM) each time.
